Values of other authors, collected in patent US20100178285A1, “SYNERGISTIC ANTHELMINTIC COMPOSITION” (priority 2006, published 2010).
Like-named read-outs stand apart in the source and are kept apart here.

How the values were obtained:
[1] = tested on: Heligmosomoides polygyrus; conditions: in vitro, H. polygyrus
[2] = tested on: gastrointestinal nematodes of sheep and goats
[3] = sheep
[4] = tested on: mixed species of gastrointestinal nematodes; conditions: sheep, 7.5 mg/kg
[5] = tested on: gastrointestinal nematodes of sheep and goats; conditions: first farm, ten days after treatment
[6] = second farm, 10 days after treatment

| free T3 and free T4 levels ([3]; either group (7.5 and 40 mg kg(−1))) | inorganic phosphate levels ([3]; groups 1 and 2) | serum albumin level ([3]; groups 1 and 2) | serum cholesterol level ([3]; groups 1 and 2) | triiodothyronine (T3) and thyroxin (T4) levels vs control ([3]; oral 7.5 mg kg(−1) (group 1)) | levels of total T3 ([3]; oral 40 mg kg(−1) (group 2)) | levels of total T4 ([3]; oral 40 mg kg(−1) (group 2)) | creatinine kinase (CK) activity ([3]; oral 7.5 and 40 mg kg(−1)) | lactate dehydrogenase (LDH) activity ([3]; oral 7.5 and 40 mg kg(−1)) | serum alkaline phosphatase (ALP) activities ([3]; oral 7.5 and 40 mg kg(−1)) | Structure (SMILES) | effect of inhibitor on efficacy of the cysteine proteinases [1] | reduction in faecal egg count [2, 6] [%] | alanine aminotransferase (ALT) activity ([3]; oral 7.5 and 40 mg kg(−1)) | aspartate aminotransferase (AST) activity ([3]; oral 7.5 and 40 mg kg(−1)) | reduction in faecal egg count ([2]; first farm, ten days after treatment) [%] | reduction in EPG [4] [%] | reduction in faecal egg count [5] [%] |
| --- | --- | --- | --- | --- | --- | --- | --- | --- | --- | --- | --- | --- | --- | --- | --- | --- | --- |
| – | – | – | – | – | – | – | – | – | – | CC(C)C[C@H](NC(=O)[C@H]1O[C@@H]1C(=O)O)C(=O)NCCCCN=C(N)N [Group E-64, E-64] | completely inhibited | – | – | – | – | – | – |
| – | – | – | – | – | – | – | – | – | – | CCCSc1ccc2nc(NC(=O)OC)[nH]c2c1 [albendazole] | – | 59.4 | – | – | – | – | – |
| not changed | decreased | increased | increased | no significant changes | increase | decreased | increased significantly | increased significantly | decreased | c1ccc([C@H]2CN3CCSC3=N2)cc1 [levamisole] | – | 99.4 | increased significantly | increased significantly | 98 | 99.2 | 97 |
